6 compounds from patent US9932331B2, “Phenyl tetrahydroisoquinoline compound substituted with heteroaryl” (TAISHO PHARMACEUTICAL CO., LTD, priority 2014, dated 2018) can be followed below.

The test system of one test is SD rat. The experiment in a line: 32P-phosphate oral loading test using SD rat (phosphorus absorption inhibitory effect). The format is in vivo. The conditions noted are these: Rattus norvegicus, 0.5 h; SD male rats, oral dose 3 mg/kg; plasma radioactivity 30 minutes after 32P-phosphate solution, vs control group; read-out: Rate of inhibition of phosphate absorption. The method in brief: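 Male 8-week-old SD rats were dosed orally at 5 ml/kg with compound at 0.2 mg/mL or 0.6 mg/mL in water, then 5 min later given 32P-phosphate in 1.3 mM NaH2PO4 (5 ml/kg). Plasma radioactivity at 30 minutes was counted by liquid scintillation; inhibition (%) was calculated relative to the water-dosed control group.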

Another test addresses T1, human NHE3 (Homo sapiens, UniProt P48764).
T1 sequence (P48764 26-834): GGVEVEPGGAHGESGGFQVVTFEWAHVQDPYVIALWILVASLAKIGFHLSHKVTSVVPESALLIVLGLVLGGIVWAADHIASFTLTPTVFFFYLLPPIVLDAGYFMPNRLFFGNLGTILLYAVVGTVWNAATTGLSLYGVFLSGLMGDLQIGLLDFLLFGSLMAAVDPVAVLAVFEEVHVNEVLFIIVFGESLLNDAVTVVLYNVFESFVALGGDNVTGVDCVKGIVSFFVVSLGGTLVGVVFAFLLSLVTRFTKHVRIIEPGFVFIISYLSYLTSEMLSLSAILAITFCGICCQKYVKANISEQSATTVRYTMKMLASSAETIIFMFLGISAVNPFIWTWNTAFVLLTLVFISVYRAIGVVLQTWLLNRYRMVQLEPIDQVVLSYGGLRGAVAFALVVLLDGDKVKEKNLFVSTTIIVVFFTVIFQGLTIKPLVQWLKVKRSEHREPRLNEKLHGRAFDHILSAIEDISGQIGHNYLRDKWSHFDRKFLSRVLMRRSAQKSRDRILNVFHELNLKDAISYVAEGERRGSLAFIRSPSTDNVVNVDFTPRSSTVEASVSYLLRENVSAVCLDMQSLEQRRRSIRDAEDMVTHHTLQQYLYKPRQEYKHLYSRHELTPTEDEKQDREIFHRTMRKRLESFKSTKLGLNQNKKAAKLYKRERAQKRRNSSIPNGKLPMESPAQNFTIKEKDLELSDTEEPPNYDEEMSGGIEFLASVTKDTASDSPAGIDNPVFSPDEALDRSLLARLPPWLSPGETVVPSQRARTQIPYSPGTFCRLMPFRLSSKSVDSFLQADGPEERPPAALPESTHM
As to the kind of experiment: NHE3 inhibition test (recovery of intracellular pH in cell line stably expressing human NHE3). It counts as cell-based. As to conditions: OK cells deficient in endogenous NHE stably expressing human NHE3; BCECF fluorescence, initial rate of pH recovery; read-out: human NHE3 inhibitory activity IC50. The essentials: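 IC50 is the concentration halving the initial rate of Na-triggered intracellular pH recovery, tracked by BCECF fluorescence, in NH4Cl-acidified cells. Cells: NHE-deficient OK line stably transfected with human NHE3; compound added in Na-free pH 7.4 buffer.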

Where a name gives a salt, the structure may show the parent alone.

One may read the IC50 as the concentration that gives 50% inhibition. As for `CN1Cc2c(Cl)cc(Cl)cc2[C@H](c2cccc(-c3cc(OCCOCCOCCOCCNC(=O)[C@H](O)[C@@H](O)C(=O)NCCOCCOCCOCCOc4cc(-c5cccc([C@@H]6CN(C)Cc7c(Cl)cc(Cl)cc76)c5)ncn4)ncn3)c2)C1` [Example 8-17, (2R,3R)-N,N′-Bis{2-[2-(2-{2-[(6-{3-[(4S)-6,8-dichloro-2-methyl-1,2,3,4-tetrahydroisoquinolin-4-yl]phenyl}pyrimidin-4-yl)oxy]ethoxy}ethoxy)ethoxy]ethyl}-2,3-dihydroxybutanediamide hydrochloride], the inhibition in vivo at 3 mg/kg with SD rat was 18%. The IC50 on human NHE3 was 2.5 nM.

Regarding `CN1Cc2c(Cl)cc(Cl)cc2[C@H](c2cccc(-c3nnn(CCOCCOCCNC(=O)Nc4ccc(NC(=O)NCCOCCOCCn5nnc(-c6cccc([C@@H]7CN(C)Cc8c(Cl)cc(Cl)cc87)c6)n5)cc4)n3)c2)C1` [Example 7-10, 1,1′-Benzene-1,4-diylbis[3-(2-{2-[2-(5-{3-[(4S)-6,8-dichloro-2-methyl-1,2,3,4-tetrahydroisoquinolin-4-yl]phenyl}-2H-tetrazol-2-yl)ethoxy]ethoxy}ethyl)urea]hydrochloride], the inhibition in vivo at 3 mg/kg in the test on SD rat was 35%. Moreover, the IC50 at human NHE3 is 13.7 nM.

Regarding `CN1Cc2c(Cl)cc(Cl)cc2[C@H](c2cccc(-c3cc(NCCOCCOCCNC(=O)NCCCCNC(=O)NCCOCCOCCNc4cc(-c5cccc([C@@H]6CN(C)Cc7c(Cl)cc(Cl)cc76)c5)ncn4)ncn3)c2)C1` [Example 7-2, 1,1′-Butane-1,4-diylbis {3-[2-(2-{2-[(6-{3-[(4S)-6,8-dichloro-2-methyl-1,2,3,4-tetrahydroisoquinolin-4-yl]phenyl}pyrimidin-4-yl)amino]ethoxy}ethoxy)ethyl]urea} tetrahydrochloride], in the test with SD rat, the inhibition in vivo at 3 mg/kg came out at 23%. Further, the IC50 on human NHE3 turned out to be 9.4 nM.

On to `CN1Cc2c(Cl)cc(Cl)cc2[C@H](c2cccc(-c3cnn(CCOCCOCCNC(=O)NCCCCNC(=O)NCCOCCOCCn4cc(-c5cccc([C@@H]6CN(C)Cc7c(Cl)cc(Cl)cc76)c5)cn4)c3)c2)C1` [Example 7-5, 1,1′-Butane-1,4-diylbis[3-(2-{2-[2-(4-{3-[(4S)-6,8-dichloro-2-methyl-1,2,3,4-tetrahydroisoquinolin-4-yl]phenyl}-1H-pyrazol-1-yl)ethoxy]ethoxy}ethyl)urea]diformate], for which the inhibition in vivo at 3 mg/kg in the test on SD rat stood at 23%. Moreover, the IC50 at human NHE3 came out at 4.5 nM.

`CN1Cc2c(Cl)cc(Cl)cc2[C@H](c2cccc(-c3cn(CCOCCOCCNC(=O)NCCCCNC(=O)NCCOCCOCCn4cnc(-c5cccc([C@@H]6CN(C)Cc7c(Cl)cc(Cl)cc76)c5)c4)cn3)c2)C1` [Example 7-15, 1,1′-Butane-1,4-diylbis[3-(2-{2-[2-(4-{3-[(4S)-6,8-dichloro-2-methyl-1,2,3,4-tetrahydroisoquinolin-4-yl]phenyl}-1H-imidazol-1-yl)ethoxy]ethoxy}ethyl)urea]hydrochloride]: in the test on SD rat, the inhibition in vivo at 3 mg/kg is 36%. The IC50 on human NHE3 was determined as 8.1 nM.

In the case of `CN1Cc2c(Cl)cc(Cl)cc2[C@H](c2cccc(-c3cn(CCOCCOCCOCCOCCNC(=O)[C@@H](O)[C@H](O)[C@H](O)[C@@H](O)C(=O)NCCOCCOCCOCCOCCn4cc(-c5cccc([C@@H]6CN(C)Cc7c(Cl)cc(Cl)cc76)c5)nn4)nn3)c2)C1` [Example 6-11, (2R,3S,4R,5S)—N,N′-Bis[14-(4-{3-[(4S)-6,8-dichloro-2-methyl-1,2,3,4-tetrahydroisoquinolin-4-yl]phenyl}-1H-1,2,3-triazol-1-yl)-3,6,9,12-tetraoxatetradec-1-yl]-2,3,4,5-tetrahydroxyhexanediamide hydrochloride], the inhibition in vivo at 3 mg/kg with SD rat amounted to 33%. Further, the IC50 on human NHE3 stood at 1.4 nM.
